Drawing on paper PMC3203539 (2011), this text covers Kd for two compounds.

The target of test [1] is T1, Sth1 (ATPase subunit of RSCt, trimeric minimal RSC) (Saccharomyces cerevisiae, UniProt P32597).
T1 sequence (P32597 301-1097): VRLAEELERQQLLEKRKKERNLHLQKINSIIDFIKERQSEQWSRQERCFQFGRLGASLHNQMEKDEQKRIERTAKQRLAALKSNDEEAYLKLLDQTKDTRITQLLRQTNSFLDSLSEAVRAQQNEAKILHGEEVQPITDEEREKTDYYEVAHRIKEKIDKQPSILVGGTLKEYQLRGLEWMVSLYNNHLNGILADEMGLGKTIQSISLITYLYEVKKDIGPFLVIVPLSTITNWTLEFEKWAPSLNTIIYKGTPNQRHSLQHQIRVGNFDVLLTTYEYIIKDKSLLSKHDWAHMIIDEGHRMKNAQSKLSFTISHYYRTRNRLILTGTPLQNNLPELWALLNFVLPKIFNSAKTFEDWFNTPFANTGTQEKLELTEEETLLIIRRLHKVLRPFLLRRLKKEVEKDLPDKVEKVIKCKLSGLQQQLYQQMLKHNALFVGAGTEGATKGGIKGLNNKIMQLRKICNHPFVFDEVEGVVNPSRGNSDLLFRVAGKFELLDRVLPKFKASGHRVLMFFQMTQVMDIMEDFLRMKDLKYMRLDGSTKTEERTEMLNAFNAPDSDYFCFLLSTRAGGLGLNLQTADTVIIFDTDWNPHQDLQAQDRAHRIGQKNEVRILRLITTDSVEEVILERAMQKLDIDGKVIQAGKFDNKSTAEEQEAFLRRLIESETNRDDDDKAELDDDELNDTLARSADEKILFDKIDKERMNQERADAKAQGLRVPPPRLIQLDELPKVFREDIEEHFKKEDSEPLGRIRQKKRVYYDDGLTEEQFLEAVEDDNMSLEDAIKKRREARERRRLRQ
T1 sequence (Q12406 1-477 partner): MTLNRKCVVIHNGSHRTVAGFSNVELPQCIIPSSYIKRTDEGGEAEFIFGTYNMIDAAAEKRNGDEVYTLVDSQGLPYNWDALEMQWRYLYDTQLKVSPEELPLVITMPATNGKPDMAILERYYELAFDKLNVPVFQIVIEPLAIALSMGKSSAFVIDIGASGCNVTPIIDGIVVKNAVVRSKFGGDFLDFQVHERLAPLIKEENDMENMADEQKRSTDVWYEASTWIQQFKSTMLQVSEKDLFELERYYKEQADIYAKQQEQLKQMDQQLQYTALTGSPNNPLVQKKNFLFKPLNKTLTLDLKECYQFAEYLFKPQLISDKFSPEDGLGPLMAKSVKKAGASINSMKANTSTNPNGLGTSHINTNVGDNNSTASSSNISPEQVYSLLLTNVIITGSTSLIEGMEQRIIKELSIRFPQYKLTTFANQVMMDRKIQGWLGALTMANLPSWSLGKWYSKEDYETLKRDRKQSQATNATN
T1 sequence (Q05123 1-467 partner): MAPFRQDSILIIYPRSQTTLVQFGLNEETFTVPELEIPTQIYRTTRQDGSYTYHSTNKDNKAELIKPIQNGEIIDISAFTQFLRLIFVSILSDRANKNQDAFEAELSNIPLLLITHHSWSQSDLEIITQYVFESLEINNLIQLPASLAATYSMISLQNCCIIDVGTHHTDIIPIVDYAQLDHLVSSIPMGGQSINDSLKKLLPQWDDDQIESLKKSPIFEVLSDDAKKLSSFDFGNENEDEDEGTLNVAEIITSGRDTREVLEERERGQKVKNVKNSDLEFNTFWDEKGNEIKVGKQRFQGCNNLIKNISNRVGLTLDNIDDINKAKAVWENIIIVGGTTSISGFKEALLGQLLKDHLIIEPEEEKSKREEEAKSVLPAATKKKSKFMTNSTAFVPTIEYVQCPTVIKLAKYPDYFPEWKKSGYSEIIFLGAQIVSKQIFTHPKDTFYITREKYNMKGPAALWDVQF
The format is binding.

The target in test [2] is T1, Sth1 (ATPase subunit of RSCt, trimeric minimal RSC). The format is binding. This is another data set of the same source.

Read-outs that look alike come from different tables or passages of the source.

By Kd is commonly meant the concentration at which binding is half-saturated. Consider `Nc1ncnc2c1ncn2[C@@H]1O[C@H](COP(=O)(O)OP(=O)(O)O)[C@@H](O)[C@H]1O` [ADP], for which the Kd in test [1] was found to be 14 ± 4 µM.
In test [2], `Nc1ncnc2c1ncn2[C@@H]1O[C@H](COP(=O)(O)OP(=O)(O)NP(=O)(O)O)[C@@H](O)[C@H]1O` [AMP-PNP] yielded a Kd of 72 ± 6 µM.
